Columns and labels:
Format in all cases: cell-based, mouse
[1] = test system: DC (D1, D8, BMDC/RAG2−/−); assay: IL-2 production by DC after stimulation in vitro (IL-2 ELISA of supernatant); conditions: splenic (D1) and bone marrow-derived DC (D8, BMDC/RAG2−/−), long- and short-term lines
Experimental: Antibodies and Reagents. LPS (E. Coli 026:B6, used at 10 μg/ml) and zymosan (used at 10 μg/ml) were obtained from Sigma Chem. (St. Louis, Mo.). rTNF, (San Francisco) and rIL-1. (Genzyme, Cambridge Mass.) were used at 100 U/ml and 10 μg/ml respectively. IFN was kindly provided by Schering-Plough (Dardilli, Fr.) and used at 1000 U/ml. CpG ([…])(SEQ ID NO. 5) and CpG control ([…]) (SEQ ID NO. 6) oligos were purchased from Life Technologies and used at a concentration of 1 µM. PE-conjugated anti-IL-2, PE-conjugated rat Isotype control, biotinilated anti-CD8α and FITC-conjugated anti-CD11c monoclonal antibodies were purchased from Pharmingen. Quantum-red-conjugated streptavidin was obtained from Sigma. Anti-I-A^d/I-E^d mAb (clone M5 /114, rat IgG2b) was kindly provided by Dr. A. Ager (NIMR, London, UK). FITC-conjugated anti-rat was from Jackson ImmunoResearch (West Grove, Pa.). Anti-CD40 antibody [clone FGK45 (10)] was used at a concentration of 20 μg/ml and crosslinked with a monoclonal anti-rat antibody (10 μg/ml, PharMingen).
DC and culture medium. D1 and D8.1 long term DC were cultured in IMDM (Sigma, St. Louis, Mo.) containing 10% heat-inactivated fetal bovine serum (GIBCO), 100 IU penicillin, 100 μg/ml streptomycin, 2 mM L-glutamine (all from Sigma), and 50 μM 2-mercaptoethanol (complete IMDM) with 30% supernatant from R1 medium [supernatant from NIH3T3 fibroblasts transfected with GM-CSF].
Fresh BMDCRAG2−/− were derived from RAG2−/− BALB/c or C57BL/6 bone marrow cells. Usually bone marrow cells cultured for two days and frozen. BMDCRAG2−/− were obtained from defrost cells after 7 days of culture in medium containing 10% of supernatant of GM-CSF transduced B16 tumor cells. BMDCRAG2−/− were used for activation only if they were immature, as judged by low B7.2 and CD40 expression.
IL-2 ELISA. IL-2 ELISA was performed using the DuoSet kit (R and D, Minneapolis, Minn.) and following the manufacturer recommendations. […]

[2] = test system: D1 cells; assay: Differential gene expression analysis (Mu6500 GeneChip) in LPS- and TNF-α-stimulated versus unstimulated D1 cells; design: key: NC: No change in the level of expression; I: induced (detected only in stimulated cells); U: up-regulated; D: down-regulated; S: suppressed (detected only in unstimulated cells); conditions: no asterisk=fold change, *=AvgDiff after stimulation, **=AvgDiff in baseline
Experimental: (§1) Cells and reagents. The D1 cells were derived from murine splenic DC and maintained in vitro in IMDM supplemented with 30% R1 conditional medium as previously described. LPS (Escherichia coli sero- type 026:B6) was purchased from Sigma Chemical Co. and used at 10 μg/ml. Muriner TNF-α (Genetech Inc., San Francisco. Calif.) was used at 100 U/ml. Cells were grown and harvested at the same time.
RNA extraction, amplification and labeling for hybridization. Antisense cRNA was prepared following Affymetrix (Santa Clara, Calif.) recommendations. Briefly, mRNA was directly extracted from frozen pellets using the DIRECT OLIGOTEX KIT (i.e., column chromatography kit for mRNA purification) from Qiagen (Chatsworth, Calif.) and converted to double-stranded cDNA using a modified oligo dT primer with a 5′T7 RNA polymerase promoter sequence and the SUPER-SCRIPT CHOICE SYSTEM (i.e., reverse transcriptase system) for cDNA synthesis (Life Technologies, Gaithesbourg, Md.). Double-stranded cDNA (0.5 μg) was transcribed to cRNA with the T7 RNA polymerase (T7 MEGASCRIPT KIT (i.e., phage specific in vitro transcription kit); Ambion, Austin, Tex.) in the presence of a mixture of unlabeled ATP, CTP, GTP, UTP and biotin-labeled CTP and UTP (ENZO Diagnostics, Farmingdale, N.Y.). cRNA was purified on an affinity column (RNEASY (i.e., a RNA purification column); Qiagen).
Probe array hybridization and scanning. The Mu6500 GENECHIP (i.e., DNA microarray) array consists of a set of four individual chips, A-D, collectively representing 6,500 murine genes and ESTs. Analysis of the D1 samples was performed by hybridizing the cRNA to the GENECHIP (i.e., DNA microarray) arrays A-D. Probe array hybridizations were carried out as described. cRNA was fragmented to an average size of 50-200 bases, by incubation for 30 min at 94° C. in 40 mM Tris-acetate pH 8.1, 100 mM potassium acetate and 30 mM magnesium acetate.
Samples were then diluted in the hybridization solution (1 M NaCI, 10 mM Tris pH7.6, 0.005% Triton X-100, 0.1 mg/ml herring sperm DNA, BioB-, BioC-, BioD-, cre- control cRNA at a concentration of 1.5, 5, 25, 100 pM, respectively) at a final concentration of 0.05 μg/ml heated at 94° C. for 5 min and placed in the hybridization cartridge (200 μl/chip). Hybridizations were performed at 40° C. for 16 h. Following hybridization the chips were rinsed with 6× SSPE-T (0.9 M NaCI, 60 mM NaH2PO4, 6 mM EDTA, 0.005% Triton X-100 adjusted to pH 7.6) and 0.5× SSPE-T and stained by incubating with 2 μg/ml streptavidin-phycoerythrin (Molecular Probes, Eugene, Oreg.) and 1 mg/ml acetylated BSA (Sigma, St. Louis, Mo.).
The arrays were read at a resolution of 7.5 μm. using a confocal scanner (Affymetrix) and analyzed with the GENECHIP 3.3 GENE EXPRESSION ANALYSIS PROGRAM (i.e., gene expression analysis software) (Affymetrix).
Gene expression analysis was performed on immature, transitional (6 h LPS and TNF-α-activated) and mature (18 h LPS- and TNF-α-activated) D1 cells using GENECHIP (i.e., DNA microarray) oligonucleotide probe arrays representing approximately 6,500 distinct mouse genes and ESTs. The 6,500 probe sets are subdivided in four individual chips, A-D, each containing oligonucleotide probes for about 1,600 genes and ESTs. The hybridized arrays were analyzed using the GENECHIP 3.3 GENE EXPRESSION ANALYSIS PROGRAM (i.e., gene expression analysis software). Data analysis protocols, sensitivity and quantitative aspects of the method have been previously precisely described. In brief, gene probes are represented by 20 perfectly matched 20-mer oligonucleotides (PM) and 20 control oligonucleotides with a single mismatch (MM). Gene expression levels are defined averaging the differences (AvgDiff) between the PM and MM of every probe pair over the entire probe set:
An AvgDiff of 20 approximates the lower value of fluorescence intensity for detected genes. […]

[3] = test system: D1 cells; assay: Growth of D1 cells after stimulation (number of viable cells)
Text: D1 cells were stimulated either with LPS or TNF-α for the indicated time. The number of viable cells at the indicated time points is expressed as percentage of seeded cells. LPS, LPS-stimulated cells; TNF-α, TNF-α-stimulated cells; NS, non-stimulated cells. Standard deviations of five independent experiments are reported.
as §1

CpG: oligo DNA containing the unmethylated CpG motif, TCCATGACGTTCCTGATGCT (SEQ ID NO. 5), recognized by TLR9 (listed as DNA, further chemistry not given here)
induction of IL-2 production/secretion by DC [1]: efficient in stimulating DC to secrete IL-2

IL-1 β: inflammatory cytokine (Genzyme)
induction of IL-2 production/secretion by DC [1]: none of the inflammatory cytokines, used individually or added simultaneously to DC cultures, were able to promote IL-2 secretion

tumor necrosis factor [TNFα]
1AP3 (Y08026) gene expression, stimulated versus unstimulated D1 cells ([2]; 6 h): NC
BTG1 (L16846) gene expression, stimulated versus unstimulated D1 cells ([2]; 6 h): NC
BTG3 (Z72000) gene expression, stimulated versus unstimulated D1 cells ([2]; 6 h): NC
CD14 (M34510) gene expression, stimulated versus unstimulated D1 cells ([2]; 6 h): NC
CD37 (U18372) gene expression, stimulated versus unstimulated D1 cells ([2]; 6 h): NC
CD40 (M833312) gene expression, stimulated versus unstimulated D1 cells ([2]; 6 h): NC
CYL-1 (M64403) gene expression, stimulated versus unstimulated D1 cells ([2]; 6 h): NC
Clqα (X58861) gene expression, stimulated versus unstimulated D1 cells ([2]; 6 h): NC
EtAI (X16151) gene expression, stimulated versus unstimulated D1 cells ([2]; 6 h): NC
F4-80 (X93328) gene expression, stimulated versus unstimulated D1 cells ([2]; 6 h): NC
GAS (U19860) gene expression, stimulated versus unstimulated D1 cells ([2]; 6 h): NC
H-2Mα (U35323) gene expression, stimulated versus unstimulated D1 cells ([2]; 6 h): NC
H-2Mβ1 (U35323) gene expression, stimulated versus unstimulated D1 cells ([2]; 6 h): NC
I-Aα (K01923) gene expression, stimulated versus unstimulated D1 cells ([2]; 6 h): NC
I-Aβ (V01527) gene expression, stimulated versus unstimulated D1 cells ([2]; 6 h): NC
IL-6 (J03783) gene expression, stimulated versus unstimulated D1 cells ([2]; 6 h): NC
IL-12p40 (M86671) gene expression, stimulated versus unstimulated D1 cells ([2]; 6 h): NC
IL-IRA (M64404) gene expression, stimulated versus unstimulated D1 cells ([2]; 6 h): NC
Jaw1 (U10484) gene expression, stimulated versus unstimulated D1 cells ([2]; 6 h): NC
Ki-67 (X82786) gene expression, stimulated versus unstimulated D1 cells ([2]; 6 h): NC
MIP-1α (M73061) gene expression, stimulated versus unstimulated D1 cells ([2]; 6 h): NC
MIP-2 (X53798) gene expression, stimulated versus unstimulated D1 cells ([2]; 6 h): NC
Macrostatin (X68273) gene expression, stimulated versus unstimulated D1 cells ([2]; 6 h): NC
OX40L (U12763) gene expression, stimulated versus unstimulated D1 cells ([2]; 6 h): NC
PA28 (U60329) gene expression, stimulated versus unstimulated D1 cells ([2]; 6 h): NC
RCK (D50494) gene expression, stimulated versus unstimulated D1 cells ([2]; 6 h): NC
TAP-1cas (M55637) gene expression, stimulated versus unstimulated D1 cells ([2]; 6 h): NC
TIS (D86344) gene expression, stimulated versus unstimulated D1 cells ([2]; 6 h): NC
TMP (U25633) gene expression, stimulated versus unstimulated D1 cells ([2]; 6 h): NC
TSA1 (U47737) gene expression, stimulated versus unstimulated D1 cells ([2]; 6 h): NC
c-1AP-I (L49433) gene expression, stimulated versus unstimulated D1 cells ([2]; 6 h): NC
cyclin A (Z26580) gene expression, stimulated versus unstimulated D1 cells ([2]; 6 h): NC
cyclin B1 (X64713) gene expression, stimulated versus unstimulated D1 cells ([2]; 6 h): NC
cyclin B2 (X66032) gene expression, stimulated versus unstimulated D1 cells ([2]; 6 h): NC
cyclin D2 (M83749) gene expression, stimulated versus unstimulated D1 cells ([2]; 6 h): NC
serum amyloid (X03505) gene expression, stimulated versus unstimulated D1 cells ([2]; 6 h): NC
βig-h3 (L19932) gene expression, stimulated versus unstimulated D1 cells ([2]; 6 h): NC
BTG1 (L16846) gene expression, stimulated versus unstimulated D1 cells ([2]; 18 h): NC
CD14 (M34510) gene expression, stimulated versus unstimulated D1 cells ([2]; 18 h): NC
CD37 (U18372) gene expression, stimulated versus unstimulated D1 cells ([2]; 18 h): NC
CYL-1 (M64403) gene expression, stimulated versus unstimulated D1 cells ([2]; 18 h): NC
Clqα (X58861) gene expression, stimulated versus unstimulated D1 cells ([2]; 18 h): NC
F4-80 (X93328) gene expression, stimulated versus unstimulated D1 cells ([2]; 18 h): NC
GAS (U19860) gene expression, stimulated versus unstimulated D1 cells ([2]; 18 h): NC
H-2Mα (U35323) gene expression, stimulated versus unstimulated D1 cells ([2]; 18 h): NC
H-2Mβ1 (U35323) gene expression, stimulated versus unstimulated D1 cells ([2]; 18 h): NC
I-Aα (K01923) gene expression, stimulated versus unstimulated D1 cells ([2]; 18 h): NC
I-Aβ (V01527) gene expression, stimulated versus unstimulated D1 cells ([2]; 18 h): NC
IL-6 (J03783) gene expression, stimulated versus unstimulated D1 cells ([2]; 18 h): NC
IL-12p40 (M86671) gene expression, stimulated versus unstimulated D1 cells ([2]; 18 h): NC
IL-IRA (M64404) gene expression, stimulated versus unstimulated D1 cells ([2]; 18 h): NC
MIP-1α (M73061) gene expression, stimulated versus unstimulated D1 cells ([2]; 18 h): NC
MIP-2 (X53798) gene expression, stimulated versus unstimulated D1 cells ([2]; 18 h): NC
Macrostatin (X68273) gene expression, stimulated versus unstimulated D1 cells ([2]; 18 h): NC
OX40L (U12763) gene expression, stimulated versus unstimulated D1 cells ([2]; 18 h): NC
PA28 (U60329) gene expression, stimulated versus unstimulated D1 cells ([2]; 18 h): NC
RCK (D50494) gene expression, stimulated versus unstimulated D1 cells ([2]; 18 h): NC
TAP-1cas (M55637) gene expression, stimulated versus unstimulated D1 cells ([2]; 18 h): NC
TIS (D86344) gene expression, stimulated versus unstimulated D1 cells ([2]; 18 h): NC
TSA1 (U47737) gene expression, stimulated versus unstimulated D1 cells ([2]; 18 h): NC
cyclin A (Z26580) gene expression, stimulated versus unstimulated D1 cells ([2]; 18 h): NC
cyclin D2 (M83749) gene expression, stimulated versus unstimulated D1 cells ([2]; 18 h): NC
mMCM2 (D86725) gene expression, stimulated versus unstimulated D1 cells ([2]; 18 h): NC
properdin (X12905) gene expression, stimulated versus unstimulated D1 cells ([2]; 18 h): NC
βig-h3 (L19932) gene expression, stimulated versus unstimulated D1 cells ([2]; 18 h): NC
induction of IL-2 production/secretion by DC [1]: none of the inflammatory cytokines, used individually or added simultaneously to DC cultures, were able to promote IL-2 secretion
doubling time of activated D1 cells [3]: 130 h
growth arrest of D1 cells ([3]; after stimulation): only a strong proliferation slow down but not a definitive growth arrest
